From patent publication EP4745137A1 (Gluetacs Therapeutics (Shanghai) Co., Ltd., priority 2023, dated 2025)
pIC50: −log10 of the molar value.

Key:
[1] = biological target: T1, GSPT1 (Homo sapiens, UniProt P15170+Q96SW2); test: Western-blot assay of substrate protein degradation in hPBMCs, GSPT1; type: cell-based; settings: 24 hours of compound treatment, compounds tested at 50 nM and 500 nM (concentration of the table not stated)
T1 construct: endogenous in cells; host or cells: hPBMCs (Milecell Biotechnologies)

[2] = biological target: T2, human Cereblon WT GST-tagged protein (Homo sapiens, UniProt Q96SW2); test: CRBN-binding affinity by HTRF (CEREBLON BINDING kit); settings: HTRF inhibitory activity, CEREBLON BINDING kit; read-out: HTRF IC50
T2 construct: purchased CISBIO 64BDCRBNPEH
Procedure: The CEREBLON BINDING kits (specification: 10,000 tests; product number: Catalog # 64BDCRBNPEH; CISBIO company) was used to determine the CRBN binding ability of the compounds to be tested through a HTRF method (homogeneous time-resolved fluorescence). The specific methods are as follows: • 1. […] Specifically, diluent #9 (1X) solution was used as the diluent, and multiple concentration gradients were set. […] Then, 2.5 µL of human Cereblon WT GST-tagged protein solution was added to each well. Finally, 5 µL of the thoroughly mixed Thalidomide-Re reagent and GST Eu antibody working solution were added to each of the aforementioned wells. […] The blank control wells were sequentially added with 2.5 µL of diluent #9 (1X) solution, 2.5 µL of binding buffer, and 5 µL of thoroughly mixed Thalidomide-Re reagent and GST Eu antibody working solution. • 4.

[3] = biological target: T3, IKZF2 (Homo sapiens, UniProt Q96SW2+Q9UKS7); test: Western-blot assay of substrate protein degradation in hPBMCs, IKZF2; type: cell-based; settings: 24 hours of compound treatment, compounds tested at 50 nM and 500 nM (concentration of the table not stated)
T3 construct: endogenous in cells; host or cells: hPBMCs (Milecell Biotechnologies)

[4] = biological target: T4, CK1α (Homo sapiens, UniProt P48729+Q96SW2); test: Western-blot assay of substrate protein degradation in hPBMCs, CK1α; type: cell-based; settings: 24 hours of compound treatment, compounds tested at 50 nM and 500 nM (concentration of the table not stated)
T4 construct: endogenous in cells; host or cells: hPBMCs (Milecell Biotechnologies)

[5] = biological target: T5, WEE1 (Homo sapiens, UniProt P30291+Q96SW2); test: Western-blot assay of substrate protein degradation in hPBMCs, WEE1; type: cell-based; settings: 24 hours of compound treatment, compounds tested at 50 nM and 500 nM (concentration of the table not stated)
T5 construct: endogenous in cells; host or cells: hPBMCs (Milecell Biotechnologies)

[6] = biological target: T6, IKZF1 (Homo sapiens, UniProt Q13422+Q96SW2); test: Western-blot assay of substrate protein degradation in hPBMCs, IKZF1; type: cell-based; settings: 24 hours of compound treatment, compounds tested at 50 nM and 500 nM (concentration of the table not stated)
T6 construct: endogenous in cells; host or cells: hPBMCs (Milecell Biotechnologies)

[7] = biological target: T7, IKZF3 (Homo sapiens, UniProt Q96SW2+Q9UKT9); test: Western-blot assay of substrate protein degradation in hPBMCs, IKZF3; type: cell-based; settings: 24 hours of compound treatment, compounds tested at 50 nM and 500 nM (concentration of the table not stated)
T7 construct: endogenous in cells; host or cells: hPBMCs (Milecell Biotechnologies)

T2 sequence (Q96SW2 whole entry): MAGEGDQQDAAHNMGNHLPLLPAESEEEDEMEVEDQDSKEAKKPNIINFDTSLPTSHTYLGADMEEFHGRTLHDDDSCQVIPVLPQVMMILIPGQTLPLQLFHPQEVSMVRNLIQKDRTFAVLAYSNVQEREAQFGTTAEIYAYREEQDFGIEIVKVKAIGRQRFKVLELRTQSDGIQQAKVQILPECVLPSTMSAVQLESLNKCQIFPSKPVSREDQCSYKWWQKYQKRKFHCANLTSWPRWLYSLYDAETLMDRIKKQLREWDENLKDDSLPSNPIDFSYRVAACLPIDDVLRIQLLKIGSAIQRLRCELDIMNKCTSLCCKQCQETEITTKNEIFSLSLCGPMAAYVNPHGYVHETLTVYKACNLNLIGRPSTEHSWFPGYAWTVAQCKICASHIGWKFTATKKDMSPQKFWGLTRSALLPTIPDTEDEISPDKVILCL
T1 sequence (P15170 whole entry): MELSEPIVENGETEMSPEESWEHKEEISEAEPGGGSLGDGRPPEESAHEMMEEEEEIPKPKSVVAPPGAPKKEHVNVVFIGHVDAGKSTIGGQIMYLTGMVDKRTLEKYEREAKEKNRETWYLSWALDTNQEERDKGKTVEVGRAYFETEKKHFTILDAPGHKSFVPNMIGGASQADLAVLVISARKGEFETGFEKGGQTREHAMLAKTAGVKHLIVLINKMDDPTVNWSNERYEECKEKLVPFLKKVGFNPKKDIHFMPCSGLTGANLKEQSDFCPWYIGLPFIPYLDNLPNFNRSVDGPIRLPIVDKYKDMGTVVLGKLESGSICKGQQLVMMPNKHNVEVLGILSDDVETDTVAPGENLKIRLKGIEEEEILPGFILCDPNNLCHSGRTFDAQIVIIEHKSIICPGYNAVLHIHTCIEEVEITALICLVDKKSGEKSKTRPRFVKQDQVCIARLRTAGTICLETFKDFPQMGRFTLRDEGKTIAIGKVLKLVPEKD
T1 sequence (Q96SW2 whole entry): as the sequence (Q96SW2 whole entry) above
T1 sequence (Q16531 whole entry partner): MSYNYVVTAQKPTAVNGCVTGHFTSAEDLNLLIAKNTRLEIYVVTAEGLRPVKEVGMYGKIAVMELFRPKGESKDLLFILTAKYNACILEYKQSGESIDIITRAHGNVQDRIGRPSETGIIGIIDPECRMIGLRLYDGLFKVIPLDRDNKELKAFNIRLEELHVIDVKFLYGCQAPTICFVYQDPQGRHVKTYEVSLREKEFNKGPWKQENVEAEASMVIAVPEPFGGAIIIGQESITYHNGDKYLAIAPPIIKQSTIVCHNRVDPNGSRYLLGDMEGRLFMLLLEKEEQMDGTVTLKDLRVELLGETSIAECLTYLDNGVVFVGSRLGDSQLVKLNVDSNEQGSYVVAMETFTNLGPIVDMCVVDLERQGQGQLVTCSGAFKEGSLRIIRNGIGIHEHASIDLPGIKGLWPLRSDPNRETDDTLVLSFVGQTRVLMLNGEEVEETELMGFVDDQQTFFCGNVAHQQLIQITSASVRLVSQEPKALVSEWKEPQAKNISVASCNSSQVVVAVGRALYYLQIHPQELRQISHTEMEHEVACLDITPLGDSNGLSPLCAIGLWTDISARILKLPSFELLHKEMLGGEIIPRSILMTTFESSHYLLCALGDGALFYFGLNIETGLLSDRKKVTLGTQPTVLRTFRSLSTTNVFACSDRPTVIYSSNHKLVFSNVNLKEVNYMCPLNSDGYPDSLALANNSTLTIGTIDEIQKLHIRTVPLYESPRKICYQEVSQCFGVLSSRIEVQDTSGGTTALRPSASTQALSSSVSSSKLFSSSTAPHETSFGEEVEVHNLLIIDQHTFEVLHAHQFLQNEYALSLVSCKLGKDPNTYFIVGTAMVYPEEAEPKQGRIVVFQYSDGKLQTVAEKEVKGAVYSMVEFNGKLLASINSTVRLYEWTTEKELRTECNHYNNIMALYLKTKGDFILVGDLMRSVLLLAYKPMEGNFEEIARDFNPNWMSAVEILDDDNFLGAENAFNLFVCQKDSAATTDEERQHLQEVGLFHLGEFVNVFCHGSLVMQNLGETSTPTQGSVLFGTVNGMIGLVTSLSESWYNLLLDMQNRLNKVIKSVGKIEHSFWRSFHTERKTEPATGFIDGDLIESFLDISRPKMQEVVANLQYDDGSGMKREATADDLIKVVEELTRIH
T6 sequence (Q13422 whole entry): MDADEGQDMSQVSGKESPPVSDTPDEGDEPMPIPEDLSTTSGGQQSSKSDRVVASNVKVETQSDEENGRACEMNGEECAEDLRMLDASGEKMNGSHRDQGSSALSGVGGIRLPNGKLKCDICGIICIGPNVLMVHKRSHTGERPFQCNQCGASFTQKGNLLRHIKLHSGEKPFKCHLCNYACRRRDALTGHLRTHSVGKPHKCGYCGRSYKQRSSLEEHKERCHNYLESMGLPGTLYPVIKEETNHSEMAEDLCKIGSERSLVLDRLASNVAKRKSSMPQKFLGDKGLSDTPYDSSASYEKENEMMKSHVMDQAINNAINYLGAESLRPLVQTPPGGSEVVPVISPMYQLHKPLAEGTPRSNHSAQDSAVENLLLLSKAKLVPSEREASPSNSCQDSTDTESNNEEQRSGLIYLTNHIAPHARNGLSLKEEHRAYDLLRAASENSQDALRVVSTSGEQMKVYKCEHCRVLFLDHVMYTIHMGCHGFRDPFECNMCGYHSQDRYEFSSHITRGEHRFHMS
T6 sequence (Q96SW2 whole entry): as the sequence (Q96SW2 whole entry) above
T6 sequence (Q16531 whole entry partner): as the sequence (Q16531 whole entry partner) above
T4 sequence (P48729 whole entry): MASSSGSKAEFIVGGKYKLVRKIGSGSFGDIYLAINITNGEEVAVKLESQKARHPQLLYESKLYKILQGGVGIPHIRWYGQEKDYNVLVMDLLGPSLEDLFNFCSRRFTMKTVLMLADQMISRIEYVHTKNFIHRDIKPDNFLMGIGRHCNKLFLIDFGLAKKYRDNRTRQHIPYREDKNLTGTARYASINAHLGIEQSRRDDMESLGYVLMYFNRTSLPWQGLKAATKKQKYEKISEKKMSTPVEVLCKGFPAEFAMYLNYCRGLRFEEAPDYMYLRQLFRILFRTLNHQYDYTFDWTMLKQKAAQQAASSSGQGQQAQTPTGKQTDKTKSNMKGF
T4 sequence (Q96SW2 whole entry): as the sequence (Q96SW2 whole entry) above
T4 sequence (Q16531 whole entry partner): as the sequence (Q16531 whole entry partner) above
T5 sequence (P30291 whole entry): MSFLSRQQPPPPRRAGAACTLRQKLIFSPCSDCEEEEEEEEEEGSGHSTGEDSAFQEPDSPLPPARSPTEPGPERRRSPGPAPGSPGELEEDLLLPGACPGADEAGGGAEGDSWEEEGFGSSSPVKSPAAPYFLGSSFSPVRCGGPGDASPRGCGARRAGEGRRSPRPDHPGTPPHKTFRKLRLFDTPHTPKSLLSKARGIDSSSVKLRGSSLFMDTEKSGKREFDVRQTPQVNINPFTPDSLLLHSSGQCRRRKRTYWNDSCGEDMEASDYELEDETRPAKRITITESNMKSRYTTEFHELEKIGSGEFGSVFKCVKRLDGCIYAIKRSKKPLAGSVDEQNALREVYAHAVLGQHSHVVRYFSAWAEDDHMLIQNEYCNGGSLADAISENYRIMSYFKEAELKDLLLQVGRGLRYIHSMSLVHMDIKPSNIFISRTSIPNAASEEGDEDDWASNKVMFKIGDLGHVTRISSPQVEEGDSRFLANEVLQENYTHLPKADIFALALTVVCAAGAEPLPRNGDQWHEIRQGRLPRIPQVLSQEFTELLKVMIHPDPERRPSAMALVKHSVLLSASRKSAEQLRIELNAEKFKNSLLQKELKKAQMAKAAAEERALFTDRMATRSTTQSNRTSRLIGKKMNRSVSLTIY
T5 sequence (Q96SW2 whole entry): as the sequence (Q96SW2 whole entry) above
T5 sequence (Q16531 whole entry partner): as the sequence (Q16531 whole entry partner) above
T3 sequence (Q9UKS7 whole entry): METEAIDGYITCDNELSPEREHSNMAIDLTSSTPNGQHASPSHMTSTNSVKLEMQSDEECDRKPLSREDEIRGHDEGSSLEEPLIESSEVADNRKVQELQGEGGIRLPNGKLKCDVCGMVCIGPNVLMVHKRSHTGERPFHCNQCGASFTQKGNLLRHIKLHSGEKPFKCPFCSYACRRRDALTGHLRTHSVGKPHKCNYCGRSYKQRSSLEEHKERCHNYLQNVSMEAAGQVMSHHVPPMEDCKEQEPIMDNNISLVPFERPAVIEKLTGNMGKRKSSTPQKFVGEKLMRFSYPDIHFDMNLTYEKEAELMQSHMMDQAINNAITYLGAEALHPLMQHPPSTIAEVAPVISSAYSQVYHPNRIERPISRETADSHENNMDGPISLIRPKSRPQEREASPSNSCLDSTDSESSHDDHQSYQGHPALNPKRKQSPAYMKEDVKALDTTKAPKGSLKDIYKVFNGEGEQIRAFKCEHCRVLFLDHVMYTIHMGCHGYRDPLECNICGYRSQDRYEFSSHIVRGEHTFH
T3 sequence (Q96SW2 whole entry): as the sequence (Q96SW2 whole entry) above
T3 sequence (Q16531 whole entry partner): as the sequence (Q16531 whole entry partner) above

| SMILES | pIC50 [2] | GSPT1 substrate protein remaining % [1] | IKZF2 substrate protein remaining % [3] | CK1a substrate protein remaining % [4] | Weel substrate protein remaining % [5] | IKZF 1 substrate protein remaining % [6] | IKZF3 substrate protein remaining % [7] |
| --- | --- | --- | --- | --- | --- | --- | --- |
| O=C1CCC(N2Cc3cc(CN4CCN(c5ncccc5C(F)(F)F)CC4)ccc3C2=O)C(=O)N1 (centres unmarked) [GT-04434, 3-(1-oxo-5-((4-(3-(trifluoromethyl)pyridin-2-yl)piperazin-1-yl)methyl)isoindolin-2-yl)piperidine-2,6-dione] | 6.00 to 6.30 | A (0% ≤ substrate protein remaining % ≤ 80%) | B (80%< substrate protein remaining %≤ 100%) | B (80%< substrate protein remaining %≤ 100%) | B (80%< substrate protein remaining %≤ 100%) | B (80%< substrate protein remaining %≤ 100%) | B (80%< substrate protein remaining %≤ 100%) |
| Cc1ccc(N2CCN(Cc3ccc4c(c3)CN(C3CCC(=O)NC3=O)C4=O)CC2)c(C)c1 (centres unmarked) [GT-04439, 3-(5-((4-(2,4-dimethylphenyl)piperazin-1-yl)methyl)-1-oxoisoindolin-2-yl)piperidine-2,6-dione] | 5.82 to 6.00 | A (0% ≤ substrate protein remaining % ≤ 80%) | A (0% ≤ substrate protein remaining % ≤ 80%) | A (0% ≤ substrate protein remaining % ≤ 80%) | A (0% ≤ substrate protein remaining % ≤ 80%) | A (0% ≤ substrate protein remaining % ≤ 80%) | A (0% ≤ substrate protein remaining % ≤ 80%) |
| O=C1CCC(N2Cc3cc(CN4CCN(c5ccccn5)CC4)ccc3C2=O)C(=O)N1 (centres unmarked) [GT-04449, 3-(1-oxo-5-((4-(pyridin-2-yl)piperazin-1-yl)methyl)isoindolin-2-yl)piperidine-2,6-dione] | 6.00 to 6.30 | A (0% ≤ substrate protein remaining % ≤ 80%) | A (0% ≤ substrate protein remaining % ≤ 80%) | A (0% ≤ substrate protein remaining % ≤ 80%) | A (0% ≤ substrate protein remaining % ≤ 80%) | A (0% ≤ substrate protein remaining % ≤ 80%) | A (0% ≤ substrate protein remaining % ≤ 80%) |

More lines, main results first:

| pIC50 [2] | SMILES | GSPT1 substrate protein remaining % [1] | IKZF2 substrate protein remaining % [3] | CK1a substrate protein remaining % [4] | Weel substrate protein remaining % [5] | IKZF 1 substrate protein remaining % [6] | IKZF3 substrate protein remaining % [7] |
| --- | --- | --- | --- | --- | --- | --- | --- |
| 6.00 to 6.30 | O=C1CCC(N2Cc3cc(CN4CCN(c5ccncc5)CC4)ccc3C2=O)C(=O)N1 (centres unmarked) [GT-04450, 3-(1-oxo-5-((4-(pyridin-4-yl)piperazin-1-yl)methyl)isoindolin-2-yl)piperidine-2,6-dione] | A (0% ≤ substrate protein remaining % ≤ 80%) | B (80%< substrate protein remaining %≤ 100%) | B (80%< substrate protein remaining %≤ 100%) | B (80%< substrate protein remaining %≤ 100%) | B (80%< substrate protein remaining %≤ 100%) | B (80%< substrate protein remaining %≤ 100%) |
| 5.82 to 6.00 | O=C1CCC(N2Cc3cc(CN4CCN(c5ccc(C(F)(F)F)cc5)CC4)ccc3C2=O)C(=O)N1 (centres unmarked) [GT-04451, 3-(1-oxo-5-((4-(4-(trifluoromethyl)phenyl)piperazin-1-yl)methyl)isoindolin-2-yl)piperidine-2,6-dione] | A (0% ≤ substrate protein remaining % ≤ 80%) | B (80%< substrate protein remaining %≤ 100%) | B (80%< substrate protein remaining %≤ 100%) | B (80%< substrate protein remaining %≤ 100%) | B (80%< substrate protein remaining %≤ 100%) | B (80%< substrate protein remaining %≤ 100%) |
